Read-outs that look alike come from different tables or passages of the source.
Experiments:
[1] = system: MS751 cells; assay: MTT cell proliferation assay, MS751; type: cell-based, human; conditions: read-out: MTT Assay IC50, MS751
Experimental: (§1) The MTT cell proliferation assay was used to study the cytotoxic properties of the compounds. The assay was performed according to the method described by Roche Molecular Biochemicals, with minor modifications. The assay is based on the cleavage of the tetrazolium salt, MTT, in the presence of an electron-coupling reagent. The water-insoluble formazan salt produced must be solubilized in an additional step. Cells grown in a 96-well tissue culture plate were incubated with the MTT solution for approximately 4 hours. After this incubation period, a water-insoluble formazan dye formed. After solubilization, the formazan dye was quantitated using a scanning multi-well spectrophotometer (ELISA reader). […] The cells were seeded at 5,000-10,000 cells in each well of 96-well plate in 100 μL of fresh culture medium and were allowed to attach overnight. The stock solutions of the compounds were diluted in 100 μL cell culture medium to obtain eight concentrations of each test compound, ranging from 1 nM to 30 μM. […] All optical densities were measured at 490 nm using a Vmax Kinetic Microplate Reader (Molecular Devices). In most cases, the assay was performed in duplicate and the results were presented as a mean percent inhibition to the negative control±SE. The following formula was used to calculate the percent of inhibition: Inhibition (%)=(1-(ODo/OD)) ×100.
(§2) The compounds were tested against MS751, Z138 and 3T3 cells. The MS751 cell line is derived from a metastasis to lymph node of human cervix from a patient diagnosed with squameous cell carcinoma of the cervix. The Z138 cell line is a mature B-cell acute lymphoblastic leukemia cell line derived from a patient with chronic lumphocytic leukemia. 3T3 cells are standard fibroblast cells; they were originally isolated from Swiss mouse embryo tissue.

[2] = system: Z138 cells; assay: MTT cell proliferation assay, Z138; type: cell-based; conditions: read-out: MTT Assay IC50, Z138
Experimental: as §1, §2

[3] = system: 3T3 cells; assay: MTT cell proliferation assay, 3T3; type: cell-based, mouse; conditions: read-out: MTT Assay IC50, 3T3
Experimental: as §1, §2

[4] = Homo sapiens, MS751, MS751 cells, approximately 64-72 hours incubation
[5] = Homo sapiens, Z-138, Z138 cells, approximately 64-72 hours incubation
[6] = Mus musculus, NIH3T3, 3T3 cells, approximately 64-72 hours incubation
[7] = MS751 cells, approximately 64-72 hours incubation
[8] = Z138 cells, approximately 64-72 hours incubation
[9] = 3T3 cells, approximately 64-72 hours incubation
[10] = Homo sapiens, MS751, MS751 cells, eight concentrations 1 nM to 30 μM, incubation approximately 64-72 hours
[11] = Homo sapiens, Z-138, Z138 cells, eight concentrations 1 nM to 30 μM, incubation approximately 64-72 hours
[12] = Mus musculus, NIH3T3, 3T3 cells, eight concentrations 1 nM to 30 μM, incubation approximately 64-72 hours

Structure (SMILES) | IC50 [1, 10] [µM] | IC50 [2, 11] [µM] | IC50 [3, 12] [µM] | other results
CC(=O)c1ccc(-c2cc(Cl)c3c(c2)CC(CNC(=O)/C=C/c2ccc(N)nc2)O3)s1 (single isomer, unassigned) [Compound 308, (E)-N-((5-(5-acetylthiophen-2-yl)-7-chloro-2,3-dihydrobenzofuran-2-yl)methyl)-3-(6-aminopyridin-3-yl)acrylamide] |  |  |  | IC50 [1, 4]: 0.1 to 5 µM; IC50 [2, 5]: 0.1 to 5 µM; IC50 [3, 6]: 5 to 30 µM
CC(=O)c1ccc(-c2cc(Cl)c3c(c2)CC(CNC(=O)/C=C/c2ccc(N)nc2)O3)s1 (single isomer, unassigned) [Compound 309, (E)-N-((5-(5-acetylthiophen-2-yl)-7-chloro-2,3-dihydrobenzofuran-2-yl)methyl)-3-(6-aminopyridin-3-yl)acrylamide] |  |  |  | IC50 [1, 7]: 0.1 to 5 µM; IC50 [2, 8]: < 0.1 µM; IC50 [3, 9]: 5 to 30 µM
CC(=O)c1ccc(-c2cc(Cl)c3c(c2)CC(CNC(=O)/C=C\c2cccnc2)O3)s1 (single isomer, unassigned) [Compound 312, (Z)-N-((5-(5-acetylthiophen-2-yl)-7-chloro-2,3-dihydrobenzofuran-2-yl)methyl)-3-(pyridin-3-yl)acrylamide] |  |  |  | IC50 [1, 7]: 5 to 30 µM; IC50 [2, 5]: 0.1 to 5 µM; IC50 [3, 9]: 5 to 30 µM
CC(=O)c1ccc(-c2cc(Cl)c3c(c2)CC(CNC(=O)/C=C\c2cccnc2)O3)s1 (single isomer, unassigned) [Compound 313, (Z)-N-((5-(5-acetylthiophen-2-yl)-7-chloro-2,3-dihydrobenzofuran-2-yl)methyl)-3-(pyridin-3-yl)acrylamide] |  |  |  | IC50 [1, 7]: 0.1 to 5 µM; IC50 [2, 8]: 0.1 to 5 µM; IC50 [3, 9]: > 30 µM
CC(=O)c1ccc(-c2cc(Cl)c3c(c2)CC(CNC(=O)/C=C/c2cccnn2)O3)s1 (single isomer, unassigned) [Compound 317, (E)-N-((5-(5-acetylthiophen-2-yl)-7-chloro-2,3-dihydrobenzofuran-2-yl)methyl)-3-(pyridazin-3-yl)acrylamide] |  |  |  | IC50 [1, 4]: 0.1 to 5 µM; IC50 [2, 5]: 0.1 to 5 µM; IC50 [3, 6]: > 30 µM
CC(=O)c1ccc(-c2cc(Cl)c3c(c2)CC(CNC(=O)/C=C/c2cccnn2)O3)s1 (single isomer, unassigned) [Compound 318, (E)-N-((5-(5-acetylthiophen-2-yl)-7-chloro-2,3-dihydrobenzofuran-2-yl)methyl)-3-(pyridazin-3-yl)acrylamide] |  |  |  | IC50 [1, 7]: 0.1 to 5 µM; IC50 [2, 8]: 0.1 to 5 µM; IC50 [3, 9]: > 30 µM
Cc1ccc(-c2cc(Cl)c3c(c2)CC(CNC(=O)/C=C/c2cccnc2)O3)cc1 (stereo not drawn) [Compound 15, (E)-N-((7-chloro-5-p-tolyl-2,3-dihydrobenzofuran-2-yl)methyl)-3-(pyridin-3-yl) acrylamide] | 0.1 to 5 | 0.1 to 5 | 5 to 30 | 
O=C(/C=C/c1cccnc1)NCC1Cc2cc(-c3ccccc3F)cc(Cl)c2O1 (stereo not drawn) [Compound 18, (E)-N-((7-chloro-5-(2-fluorophenyl)-2,3-dihydrobenzofuran-2-yl)methyl)-3-(pyridin-3-yl)acrylamide] | 0.1 to 5 | 0.1 to 5 | 5 to 30 | 
O=C(/C=C/c1cccnc1)NCC1Cc2cc(-c3cc(F)c(F)c(F)c3)cc(Cl)c2O1 (stereo not drawn) [Compound 21, (E)-N-((7-chloro-5-(3,4,5-trifluorophenyl)-2,3-dihydrobenzofuran-2-yl)methyl)-3-(pyridin-3-yl)acrylamide] | 0.1 to 5 | 0.1 to 5 | > 30 | 
CC(=O)c1ccc(-c2cc(Cl)c3c(c2)CC(CNC(=O)/C=C/c2ccncc2)O3)s1 (stereo not drawn) [Compound 24, (E)-N-((5-(5-acetylthiophen-2-yl)-7-chloro-2,3-dihydrobenzofuran-2-yl)methyl)-3-(pyridin-4-yl)acrylamide] | > 30 | > 30 | > 30 | 
CC(=O)c1ccc(-c2cc(Cl)c3c(c2)CC(CN)O3)s1 (stereo not drawn) [Compound 26] | 5 to 30 | 5 to 30 | 5 to 30 | 
CC(=O)c1ccc(-c2cc(Cl)c3c(c2)CC(CNC(=O)/C=C/c2cccnc2)O3)s1 (stereo not drawn) [Compound 27, (E)-N-((5-(5-acetylthiophen-2-yl)-7-chloro-2,3-dihydrobenzofuran-2-yl)methyl)-3-(pyridin-3-yl)acrylamide] | < 0.1 | < 0.1 | 0.1 to 5 | 
CC(=O)c1ccc(-c2cc(Cl)c3c(c2)CC(CNC(=O)/C=C/c2ccc[n+]([O-])c2)O3)s1 (stereo not drawn) [Compound 28, (E)-N-((5-(5-acetylthiophen-2-yl)-7-chloro-2,3-dihydrobenzofuran-2-yl)methyl)-3-(pyridine-1-oxide-3-yl)acrylamide] | > 30 | > 30 | > 30 | 
O=C(/C=C/c1cccnc1)NCC1Cc2cc(-c3ccc(C(=O)N4CCOCC4)cc3)cc(Cl)c2O1 (stereo not drawn) [Compound 29] | < 0.1 | < 0.1 | 0.1 to 5 | 
O=C(/C=C/c1cccnc1)NCC1Cc2cc(-c3cc(Cl)cc(Cl)c3)cc(Cl)c2O1 (stereo not drawn) [Compound 32, (E)-N-((7-chloro-5-(3,5-dichlorophenyl)-2,3-dihydrobenzofuran-2-yl)methyl)-3-(pyridin-3-yl)acrylamide] | 0.1 to 5 | 0.1 to 5 | > 30 | 
Cc1noc(C)c1-c1cc(Cl)c2c(c1)CC(CNC(=O)/C=C/c1cccnc1)O2 (stereo not drawn) [Compound 35, (E)-N-((7-chloro-5-(3,5-dimethylisoxazol-4-yl)-2,3-dihydrobenzofuran-2-yl)methyl)-3-(pyridin-3-yl)acrylamide] | 0.1 to 5 | < 0.1 | 0.1 to 5 | 
CC(=O)c1ccc(-c2cc(Cl)c3c(c2)CC(CNC(=O)/C=C/c2ccccc2)O3)s1 (stereo not drawn) [Compound 38, N-((5-(5-acetylthiophen-2-yl)-7-chloro-2,3-dihydrobenzofuran-2-yl)methyl)cinnamamide] | > 30 | > 30 | > 30 | 
COc1cccc(-c2cc(Cl)c3c(c2)CC(CNC(=O)/C=C/c2cccnc2)O3)c1F (stereo not drawn) [Compound 39, (E)-N-((7-chloro-5-(2-fluoro-3-methoxyphenyl)-2,3-dihydrobenzofuran-2-yl)methyl)-3-(pyridin-3-yl)acrylamide] | 0.1 to 5 | 0.1 to 5 | 0.1 to 5 | 
O=C(/C=C/c1cccnc1)NCC1Cc2cc(-c3ccco3)cc(Cl)c2O1 (stereo not drawn) [Compound 42, (E)-N-((7-chloro-5-(furan-2-yl)-2,3-dihydrobenzofuran-2-yl)methyl)-3-(pyridin-3-yl)acrylamide] | 0.1 to 5 | 0.1 to 5 | 5 to 30 | 
CC(=O)c1ccc(-c2cc(Cl)c3c(c2)CC(CNC(=O)/C=C/c2ccc(Cl)nc2)O3)s1 (stereo not drawn) [Compound 45, (E)-N-((5-(5-acetylthiophen-2-yl)-7-chloro-2,3-dihydrobenzofuran-2-yl)methyl)-3-(6-chloropyridin-3-yl)acrylamide] | > 30 | > 30 | > 30 | 
O=C(/C=C/c1cccnc1)NCC1Cc2cc(-c3cc(C(F)(F)F)cc(C(F)(F)F)c3)cc(Cl)c2O1 (stereo not drawn) [Compound 49, (E)-N-((5-(3,5-bis(trifluoromethyl)phenyl)-7-chloro-2,3-dihydrobenzofuran-2-yl)methyl)-3-(pyridin-3-yl)acrylamide] | 0.1 to 5 | 0.1 to 5 | 0.1 to 5 | 
CCOC(=O)c1cccc(-c2cc(Cl)c3c(c2)CC(CNC(=O)/C=C/c2cccnc2)O3)c1 (stereo not drawn) [Compound 52, (E)-ethyl 3-(7-chloro-2-((3-(pyridin-3-yl)acrylamido)methyl)-2,3-dihydrobenzofuran-5-yl)benzoate] | 0.1 to 5 | 0.1 to 5 | 0.1 to 5 | 
O=C(/C=C/c1cccnc1)NCC1Cc2cc(-c3ccc(Cl)cc3F)cc(Cl)c2O1 (stereo not drawn) [Compound 55, (E)-N-((7-chloro-5-(4-chloro-2-fluorophenyl)-2,3-dihydrobenzofuran-2-yl)methyl)-3-(pyridin-3-yl)acrylamide] | 0.1 to 5 | 0.1 to 5 | > 30 | 
O=C(/C=C/c1cccnc1)NCC1Cc2cc(-c3cccc(CO)c3)cc(Cl)c2O1 (stereo not drawn) [Compound 58, (E)-N-((7-chloro-5-(3-(hydroxymethyl)phenyl)-2,3-dihydrobenzofuran-2-yl)methyl)-3-(pyridin-3-yl)acrylamide] | 0.1 to 5 | 0.1 to 5 | 0.1 to 5 | 

Reference: patent US9938258B2 (Karyopharm Therapeutics Inc., priority 2012, dated 2018)
